Laboratory results taken from ChEMBL document CHEMBL3045610, “Pyridoquinolones containing azetidinones: synthesis and their biological evaluation” (2012).
≈ marks a conversion by molar mass, not a printed value.

Experiments:
Format in all cases: functional
Aspergillus clavatus = test: Antifungal activity against Aspergillus clavatus by broth dilution method
Aspergillus niger = test: Antifungal activity against Aspergillus niger by broth dilution method
Candida albicans = test: Antifungal activity against Candida albicans by broth dilution method
Pseudomonas aeruginosa = test: Antibacterial activity against Pseudomonas aeruginosa by broth dilution method
Streptococcus pyogenes = test: Antibacterial activity against Streptococcus pyogenes by broth dilution method
[1] = system: Mycobacterium tuberculosis; test: Antimicrobial activity against Mycobacterium tuberculosis H37Rv by broth dilution method
Staphylococcus aureus = test: Antibacterial activity against Staphylococcus aureus by broth dilution method
Escherichia coli = test: Antibacterial activity against Escherichia coli by broth dilution method

Molecule	MIC (Aspergillus clavatus)	MIC (Aspergillus niger)	MIC (Candida albicans)	MIC (Pseudomonas aeruginosa)	MIC (Streptococcus pyogenes)	MIC [1]	MIC (Staphylococcus aureus)	MIC (Escherichia coli)
NYSTATIN	100 µg/mL	100 µg/mL	100 µg/mL					
Cc1cc(Cl)nc2ccc3c(=O)c(C(=O)NN4C(=O)C(Cl)C4c4ccccc4O)c[nH]c3c12 (configuration not stated)	1000 µg/mL (≈ 2070 µM)	1000 µg/mL (≈ 2070 µM)	500 µg/mL (≈ 1030 µM)	200 µg/mL (≈ 414 µM)	500 µg/mL (≈ 1030 µM)	500 µg/mL (≈ 1030 µM)	500 µg/mL (≈ 1030 µM)	100 µg/mL (≈ 207 µM)
COC1=CC(=O)C[C@@H](C)[C@]12Oc1c(Cl)c(OC)cc(OC)c1C2=O [GRISEOFULVIN]	100 µg/mL (≈ 283 µM)	100 µg/mL (≈ 283 µM)	500 µg/mL (≈ 1420 µM)					
NNC(=O)c1ccncc1 [ISONIAZID]						0.2 µg/mL (≈ 1.46 µM)		
Cc1cc(Cl)nc2ccc3c(=O)c(C(=O)NN4C(=O)C(Cl)C4c4cccc([N+](=O)[O-])c4O)c[nH]c3c12 (configuration not stated)	> 1000 µg/mL	> 1000 µg/mL	500 µg/mL (≈ 946 µM)	200 µg/mL (≈ 379 µM)	500 µg/mL (≈ 946 µM)	200 µg/mL (≈ 379 µM)	500 µg/mL (≈ 946 µM)	62.5 µg/mL (≈ 118 µM)
Cc1cc(Cl)nc2ccc3c(=O)c(C(=O)NN4C(=O)C(Cl)C4c4ccccc4Cl)c[nH]c3c12 (configuration not stated)	250 µg/mL (≈ 498 µM)	250 µg/mL (≈ 498 µM)	100 µg/mL (≈ 199 µM)	250 µg/mL (≈ 498 µM)	200 µg/mL (≈ 399 µM)		200 µg/mL (≈ 399 µM)	200 µg/mL (≈ 399 µM)
Cc1cc(Cl)nc2ccc3c(=O)c(C(=O)NN4C(=O)C(Cl)C4c4ccccc4)c[nH]c3c12 (configuration not stated)	> 1000 µg/mL	> 1000 µg/mL	500 µg/mL (≈ 1070 µM)	250 µg/mL (≈ 535 µM)	250 µg/mL (≈ 535 µM)	250 µg/mL (≈ 535 µM)	250 µg/mL (≈ 535 µM)	100 µg/mL (≈ 214 µM)
COc1ccc(/C=N/NC(=O)c2c[nH]c3c(ccc4nc(Cl)cc(C)c43)c2=O)cc1	500 µg/mL (≈ 1190 µM)	500 µg/mL (≈ 1190 µM)	500 µg/mL (≈ 1190 µM)	500 µg/mL (≈ 1190 µM)	500 µg/mL (≈ 1190 µM)		500 µg/mL (≈ 1190 µM)	250 µg/mL (≈ 594 µM)
Cc1cc(Cl)nc2ccc3c(=O)c(C(=O)N/N=C/c4ccccc4)c[nH]c3c12	> 1000 µg/mL	> 1000 µg/mL	250 µg/mL (≈ 640 µM)	250 µg/mL (≈ 640 µM)	250 µg/mL (≈ 640 µM)		200 µg/mL (≈ 512 µM)	250 µg/mL (≈ 640 µM)
Cc1cc(Cl)nc2ccc3c(=O)c(C(=O)NN4C(=O)C(Cl)C4c4cc([N+](=O)[O-])ccc4O)c[nH]c3c12 (configuration not stated)	500 µg/mL (≈ 946 µM)	500 µg/mL (≈ 946 µM)	250 µg/mL (≈ 473 µM)	500 µg/mL (≈ 946 µM)	500 µg/mL (≈ 946 µM)		500 µg/mL (≈ 946 µM)	250 µg/mL (≈ 473 µM)
Cc1cc(Cl)nc2ccc3c(=O)c(C(=O)N/N=C/c4ccccc4Cl)c[nH]c3c12	> 1000 µg/mL	500 µg/mL (≈ 1180 µM)	250 µg/mL (≈ 588 µM)	500 µg/mL (≈ 1180 µM)	200 µg/mL (≈ 470 µM)		100 µg/mL (≈ 235 µM)	500 µg/mL (≈ 1180 µM)
COc1cc(C2C(Cl)C(=O)N2NC(=O)c2c[nH]c3c(ccc4nc(Cl)cc(C)c43)c2=O)ccc1O (configuration not stated)	500 µg/mL (≈ 974 µM)	500 µg/mL (≈ 974 µM)	1000 µg/mL (≈ 1950 µM)	500 µg/mL (≈ 974 µM)	1000 µg/mL (≈ 1950 µM)		1000 µg/mL (≈ 1950 µM)	250 µg/mL (≈ 487 µM)
Cc1cc(Cl)nc2ccc3c(=O)c(C(=O)N/N=C/c4cc([N+](=O)[O-])ccc4O)c[nH]c3c12	1000 µg/mL (≈ 2210 µM)	1000 µg/mL (≈ 2210 µM)	200 µg/mL (≈ 443 µM)	100 µg/mL (≈ 221 µM)	250 µg/mL (≈ 553 µM)	500 µg/mL (≈ 1110 µM)	200 µg/mL (≈ 443 µM)	62.5 µg/mL (≈ 138 µM)
Cc1cc(Cl)nc2ccc3c(=O)c(C(=O)NN4C(=O)C(Cl)C4c4ccc(Cl)cc4)c[nH]c3c12 (configuration not stated)	500 µg/mL (≈ 996 µM)	500 µg/mL (≈ 996 µM)	200 µg/mL (≈ 399 µM)	100 µg/mL (≈ 199 µM)	500 µg/mL (≈ 996 µM)	100 µg/mL (≈ 199 µM)	500 µg/mL (≈ 996 µM)	100 µg/mL (≈ 199 µM)
COc1cc(/C=N/NC(=O)c2c[nH]c3c(ccc4nc(Cl)cc(C)c43)c2=O)ccc1O	1000 µg/mL (≈ 2290 µM)	1000 µg/mL (≈ 2290 µM)	250 µg/mL (≈ 572 µM)	500 µg/mL (≈ 1140 µM)	200 µg/mL (≈ 458 µM)	500 µg/mL (≈ 1140 µM)	100 µg/mL (≈ 229 µM)	500 µg/mL (≈ 1140 µM)
Cc1ccc(C2C(Cl)C(=O)N2NC(=O)c2c[nH]c3c(ccc4nc(Cl)cc(C)c43)c2=O)cc1 (configuration not stated)	> 1000 µg/mL	> 1000 µg/mL	200 µg/mL (≈ 416 µM)	250 µg/mL (≈ 519 µM)	250 µg/mL (≈ 519 µM)		250 µg/mL (≈ 519 µM)	250 µg/mL (≈ 519 µM)
COc1ccc(C2C(Cl)C(=O)N2NC(=O)c2c[nH]c3c(ccc4nc(Cl)cc(C)c43)c2=O)cc1 (configuration not stated)	> 1000 µg/mL	> 1000 µg/mL	500 µg/mL (≈ 1010 µM)	250 µg/mL (≈ 503 µM)	500 µg/mL (≈ 1010 µM)		500 µg/mL (≈ 1010 µM)	250 µg/mL (≈ 503 µM)
O=C(N[C@H](CO)[C@H](O)c1ccc([N+](=O)[O-])cc1)C(Cl)Cl [CHLORAMPHENICOL]				50 µg/mL (≈ 155 µM)	50 µg/mL (≈ 155 µM)		50 µg/mL (≈ 155 µM)	50 µg/mL (≈ 155 µM)
CCOC(=O)c1c[nH]c2c(ccc3nc(Cl)cc(C)c32)c1=O	1000 µg/mL (≈ 3160 µM)	1000 µg/mL (≈ 3160 µM)	200 µg/mL (≈ 631 µM)	250 µg/mL (≈ 789 µM)	100 µg/mL (≈ 316 µM)	500 µg/mL (≈ 1580 µM)	150 µg/mL (≈ 474 µM)	250 µg/mL (≈ 789 µM)
Cc1cc(Cl)nc2ccc3c(=O)c(C(=O)N/N=C/c4ccc(Cl)cc4)c[nH]c3c12	250 µg/mL (≈ 588 µM)	250 µg/mL (≈ 588 µM)	500 µg/mL (≈ 1180 µM)	1000 µg/mL (≈ 2350 µM)	250 µg/mL (≈ 588 µM)		250 µg/mL (≈ 588 µM)	500 µg/mL (≈ 1180 µM)
Cc1cc(Cl)nc2ccc3c(=O)c(C(=O)N/N=C/c4cccc([N+](=O)[O-])c4O)c[nH]c3c12	500 µg/mL (≈ 1110 µM)	500 µg/mL (≈ 1110 µM)	200 µg/mL (≈ 443 µM)	200 µg/mL (≈ 443 µM)	500 µg/mL (≈ 1110 µM)	62.5 µg/mL (≈ 138 µM)	500 µg/mL (≈ 1110 µM)	150 µg/mL (≈ 332 µM)
CC1(C)S[C@@H]2[C@H](NC(=O)[C@H](N)c3ccccc3)C(=O)N2[C@H]1C(=O)O [AMPICILLIN]				100 µg/mL (≈ 286 µM)	100 µg/mL (≈ 286 µM)		250 µg/mL (≈ 715 µM)	100 µg/mL (≈ 286 µM)
Cc1cc(Cl)nc2ccc3c(=O)c(C(=O)N/N=C/c4ccccc4O)c[nH]c3c12	500 µg/mL (≈ 1230 µM)	500 µg/mL (≈ 1230 µM)	100 µg/mL (≈ 246 µM)	250 µg/mL (≈ 615 µM)	200 µg/mL (≈ 492 µM)	200 µg/mL (≈ 492 µM)	100 µg/mL (≈ 246 µM)	250 µg/mL (≈ 615 µM)
CCn1cc(C(=O)O)c(=O)c2cc(F)c(N3CCNCC3)cc21 [NORFLOXACIN]				10 µg/mL (≈ 31.3 µM)	10 µg/mL (≈ 31.3 µM)		10 µg/mL (≈ 31.3 µM)	10 µg/mL (≈ 31.3 µM)
COc1ccccc1/C=N/NC(=O)c1c[nH]c2c(ccc3nc(Cl)cc(C)c32)c1=O	1000 µg/mL (≈ 2380 µM)	1000 µg/mL (≈ 2380 µM)	500 µg/mL (≈ 1190 µM)	250 µg/mL (≈ 594 µM)	250 µg/mL (≈ 594 µM)	250 µg/mL (≈ 594 µM)	250 µg/mL (≈ 594 µM)	100 µg/mL (≈ 238 µM)
COc1ccccc1C1C(Cl)C(=O)N1NC(=O)c1c[nH]c2c(ccc3nc(Cl)cc(C)c32)c1=O (configuration not stated)	> 1000 µg/mL	> 1000 µg/mL	250 µg/mL (≈ 503 µM)	1000 µg/mL (≈ 2010 µM)	500 µg/mL (≈ 1010 µM)		250 µg/mL (≈ 503 µM)	500 µg/mL (≈ 1010 µM)
Cc1cc(Cl)nc2ccc3c(=O)c(C(=O)NN)c[nH]c3c12	> 1000 µg/mL	> 1000 µg/mL	500 µg/mL (≈ 1650 µM)	200 µg/mL (≈ 661 µM)	200 µg/mL (≈ 661 µM)	200 µg/mL (≈ 661 µM)	250 µg/mL (≈ 826 µM)	100 µg/mL (≈ 330 µM)
O=C(O)c1cn(C2CC2)c2cc(N3CCNCC3)c(F)cc2c1=O [CIPROFLOXACIN]					50 µg/mL (≈ 151 µM)		50 µg/mL (≈ 151 µM)	25 µg/mL (≈ 75.4 µM)
Cc1ccc(/C=N/NC(=O)c2c[nH]c3c(ccc4nc(Cl)cc(C)c43)c2=O)cc1	500 µg/mL (≈ 1240 µM)	500 µg/mL (≈ 1240 µM)	250 µg/mL (≈ 618 µM)	250 µg/mL (≈ 618 µM)	250 µg/mL (≈ 618 µM)		250 µg/mL (≈ 618 µM)	200 µg/mL (≈ 494 µM)
